Results as given in PubChem BioAssay AID1259407 (Chemical Carcinogenesis Research Information System (CCRIS), 2018).
Calls of active or inactive are those of the source. How the calls were made is not given here.

Test system: CCRIS mutagenicity, Ames/micronucleus/aberration tests
Assay: CCRIS mutagenicity studies

Measured: mutagenic call

CC(=O)N[C@@H]1[C@@H](O[C@@H]2O[C@H](C(=O)O)[C@@H](O[C@@H]3O[C@H](CO)[C@@H](O)[C@H](O[C@@H]4O[C@H](C(=O)O)[C@@H](O)[C@H](O)[C@H]4O)[C@H]3NC(C)=O)[C@H](O)[C@H]2O)[C@H](O)[C@@H](CO)O[C@H]1O
inactive: Test System: AMES SALMONELLA TYPHIMURIUM, Strain/Indicator: TA98, Metabolic Activation: NONE inactive; negative | Test System: AMES SALMONELLA TYPHIMURIUM, Strain/Indicator: TA98, Metabolic Activation: NONE, Method: PREINCUBATION inactive; negative | Test System: AMES SALMONELLA TYPHIMURIUM, Strain/Indicator: TA98, Metabolic Activation: RAT, LIVER, S-9, PHENOBARBITAL AND 5,6-BENZOFLAVONE, Method: PREINCUBATION inactive; negative | Test System: AMES SALMONELLA TYPHIMURIUM, Strain/Indicator: TA98, Metabolic Activation: RAT, LIVER, S-9, Method: PREINCUBATION inactive; negative | Test System: AMES SALMONELLA TYPHIMURIUM, Strain/Indicator: TA98, Metabolic Activation: S-9 inactive; negative | Test System: AMES SALMONELLA TYPHIMURIUM, Strain/Indicator: TA100, Metabolic Activation: NONE inactive; negative | Test System: AMES SALMONELLA TYPHIMURIUM, Strain/Indicator: TA100, Metabolic Activation: NONE, Method: PREINCUBATION inactive; negative | Test System: AMES SALMONELLA TYPHIMURIUM, Strain/Indicator: TA100, Metabolic Activation: RAT, LIVER, S-9, PHENOBARBITAL AND 5,6-BENZOFLAVONE, Method: PREINCUBATION inactive; negative | Test System: AMES SALMONELLA TYPHIMURIUM, Strain/Indicator: TA100, Metabolic Activation: RAT, LIVER, S-9, Method: PREINCUBATION inactive; negative | Test System: AMES SALMONELLA TYPHIMURIUM, Strain/Indicator: TA100, Metabolic Activation: S-9 inactive; negative | Test System: AMES SALMONELLA TYPHIMURIUM, Strain/Indicator: TA1535, Metabolic Activation: NONE inactive; negative | Test System: AMES SALMONELLA TYPHIMURIUM, Strain/Indicator: TA1535, Metabolic Activation: NONE, Method: PREINCUBATION inactive; negative | Test System: AMES SALMONELLA TYPHIMURIUM, Strain/Indicator: TA1535, Metabolic Activation: RAT, LIVER, S-9, PHENOBARBITAL AND 5,6-BENZOFLAVONE, Method: PREINCUBATION inactive; negative | Test System: AMES SALMONELLA TYPHIMURIUM, Strain/Indicator: TA1535, Metabolic Activation: RAT, LIVER, S-9, Method: PREINCUBATION inactive; negative | Test System: AMES SALMONELLA TYPHIMURIUM, Strain/Indicator: TA1535, Metabolic Activation: S-9 inactive; negative | Test System: AMES SALMONELLA TYPHIMURIUM, Strain/Indicator: TA1537, Metabolic Activation: NONE inactive; negative | Test System: AMES SALMONELLA TYPHIMURIUM, Strain/Indicator: TA1537, Metabolic Activation: NONE, Method: PREINCUBATION inactive; negative | Test System: AMES SALMONELLA TYPHIMURIUM, Strain/Indicator: TA1537, Metabolic Activation: RAT, LIVER, S-9, PHENOBARBITAL AND 5,6-BENZOFLAVONE, Method: PREINCUBATION inactive; negative | Test System: AMES SALMONELLA TYPHIMURIUM, Strain/Indicator: TA1537, Metabolic Activation: RAT, LIVER, S-9, Method: PREINCUBATION inactive; negative | Test System: AMES SALMONELLA TYPHIMURIUM, Strain/Indicator: TA1537, Metabolic Activation: S-9 inactive; negative | Test System: E. COLI, Strain/Indicator: WP2 UVRA, Metabolic Activation: NONE inactive; negative | Test System: E. COLI, Strain/Indicator: WP2 UVRA, Metabolic Activation: S-9 inactive; negative | Test System: E.COLI, Strain/Indicator: WP2 UVRA, Metabolic Activation: NONE, Method: PREINCUBATION inactive; negative | Test System: E.COLI, Strain/Indicator: WP2 UVRA, Metabolic Activation: RAT, LIVER, S-9, PHENOBARBITAL AND 5,6-BENZOFLAVONE, Method: PREINCUBATION inactive; negative | Test System: E.COLI, Strain/Indicator: WP2 UVRA, Metabolic Activation: RAT, LIVER, S-9, Method: PREINCUBATION inactive; negative

Cc1ccccc1-c1nc2ccccc2o1
inactive: Test System: AMES SALMONELLA TYPHIMURIUM, Strain/Indicator: TA98, Metabolic Activation: NONE, Method: STANDARD PLATE inactive; negative | Test System: AMES SALMONELLA TYPHIMURIUM, Strain/Indicator: TA98, Metabolic Activation: S-9, Method: STANDARD PLATE inactive; negative
